According to US11078245B2, “Colon and pancreas cancer peptidomimetics” (PRECISION BIOLOGICS, INC., priority 2010, dated 2021):
Entries after “also recorded” stand apart in the source; their conditions may differ. Ends that are not written are not given here.

Assays:
NEO-101 = assay: Biotinylated peptide binding ELISA; conditions: biotinylated peptide on NEO-101 coated plate
Method: To solve the poor binding of peptides to 96 well plate, peptides were biotinylated using EZ-link micro NHS Biotinylation kit (Pierce Cat #21955), and labeling efficiency checked by dot blot (50%). The biotinylated peptide binding was analyzed in ELISA by adding 100 μl/well of NEO-101 (1 μg/ml) in CBS buffer to 96 well plate and incubating at 4° C. overnight, followed by three washes with TBST (0.05% Tween). The solution was blocked with 200μ/of 1% milk in TBS at RT for 20 min. Aliquots of 100 μl peptide-biotin ([…]) in 0.1% milk-TBS were added, and incubated at RT of 2 hr, followed by three washes with TBST. Streptavidin-HRP (100 μl of 1:2000 diluted in 1:10 diluted blocking buffer) was added, and the wells incubated at RT for 1 hr, followed by three washed. TMB was then added, and the wells were read at 450 nm. Positive controls for NPC-1C binding used 4B6-biotin. The results are shown in FIG. 11, which indicates biotinylated peptides bind to NPC-1C coated plate.

CFPAC1 cells = assay: NEO-101-coupled Dynal beads rosette assay; format: cell-based, human
Method: The M13 clones identified by the biopanning were also immunoassayed using magnetic beads. Aliquots of 5 μl M13 phage (10^11/10 μl) were mixed with 10 μl NEO-101-coupled Dynal® beads at RT for 20 min on a rotator. CFPAC1 cells (30 μl of 10^6 cells/ml) were added and incubated at 4° C. for 30 min. Rosetted cells were counted (>8 beads/cell).

Colon Ag = assay: ELISA of NEO-101 binding inhibition by peptides against Colon Ag; design: species or system human
Method: An ELISA analysis of the NEO-101 binding inhibition by peptide 4-1-3-C9 and 4-1-4-C12 against Colon Ag was conducted. Aliquots of 100 μl/well Colon Ag (3 μg/ml in CBS buffer) in 96 well plate were incubated at 4° C. overnight, and the wells washed three times with TBST (0.05% Tween). The wells were blocked with 200 μl of 1% milk at RT for 1 hour. A pre-mix of NEO-101-biotin and test peptide was added at 100 μl/well and incubated at RT of 1 hour, followed by three washes with TBST. Streptavidin-HRP (100 μl of 1:2000 dilution) was added and the reaction incubated at RT for 1 hour, and the wells washed three time. TMB was added, and the wells were read at 450 nm. The control was NEO-101-biotin.

[1] = tested on: CFPAC1 culture supernatant; assay: Peptide competition ELISA on CFPAC1 culture supernatant-coated plates; format: binding, human
From the text: FIG. 15A is a bar graph showing the percent blocking of NEO-101 by peptides (identified by biopanning an M13 phage library) on CFPAC1 culture supernatant-coated plates. FIG. 15B is a bar graph of OD values showing blocking of NEO-101 by peptides (identified by biopanning an M13 phage library) on CFPAC1 culture supernatant-coated plates.
Next, the inhibition of NEO-101 beads binding to CFAC1 Cells (rosetted cells) by peptides 4-1-4C12 and 4-1-4C12-R2 was investigated, as shown in FIG. 14A. FIG. 14B was the results from positive control with 4B6 in competitive beads assay. […] Therefore, the peptide 4-1-4-C12 is a peptidomimetic of the NPC-1 epitope and may be used to elicit a NPC-1 specific antibodies.

4-1-4C12 peptide = assay: Rabbit immunization, serum binding ELISA; format: in vivo, rabbits; conditions: rabbit serum after third injection
Method: (§1) An exemplary NPC-1 antigen peptidomimetic, 4-1-4C12 (SEQ ID NO: 5) was conjugated to KLH (Keyhole Limpit Hemocyannin) (“4-1-4-C12-KLH”). […] Further, 4-1-4C12-KLH blocks NPC-1 binding to NPC-1C antigen specifically in competitive ELISA. After confirming the function of 4-1-4C12-KLH, 4-1-4C12-KLH was injected into rabbits. The immunized serum after third injection was tested by binding ELISA to check the function of 4-1-4C12-KLH induced antibody. The plate was coated with 4-1-4C12 peptide or CFPAC1 sup, diluted serum was added to the washed and blocked the plate. Bound rabbit IgG was detected by donkey anti-rabbit IgG-HRP.

CFPAC1 sup = molecular target: T1, CFPAC1 sup (Homo sapiens, UniProt P98088); assay: Rabbit immunization, serum binding ELISA; format: in vivo, rabbits; conditions: rabbit serum after third injection
T1 construct: endogenous in cells; host or cells: CFPAC-1 (human pancreatic tumor cell line); cells or serum-free conditioned medium
Method: as §1

NEO-101 antibody = assay: 4-1-4-C12-KLH binding ELISA
NPC-1C antigen = assay: 4-1-4C12-KLH competitive ELISA; format: binding
Method: as §1

Row | Substance | NEO-101 binding (NEO-101) | blocking of NEO-101-coupled beads binding to CFPAC1 cells (CFPAC1 cells) | Positive rosette cells (%) (CFPAC1 cells; Dynal beads coupled with NEO-101, premixed with M13 clone) | Blocking of NEO-101 antibody binding to colon Ag (Colon Ag) | competition against bound CFPAC1 antigen with NEO-101 binding [1] | immunized serum binding to 4-1-4C12 peptide (4-1-4C12 peptide) | immunized serum binding to CFPAC1 supernatant (CFPAC1 sup) | binding to NEO-101 antibody (NEO-101 antibody) | blocking of NPC-1 binding to NPC-1C antigen (NPC-1C antigen)
1 | YSHSFPEDYFRYTNQKGGGS (NPC-1 epitope peptidomimetic) [Peptide 4-1-3-C9] | Yes | blocked | 0 | Yes | significant competition |  |  |  | 
2 | 4-1-4-C12-KLH: 4-1-4C12 (SEQ ID NO: 5) conjugated to KLH (Keyhole Limpit Hemocyannin) (SLPDDWFRYINY; also: conjugated to KLH (keyhole limpet hemocyanin)) |  |  |  |  |  | binds to 4-1-4C12; also recorded: dose dependent manner | bind to CFPAC1 human pancreatic cell line supernatant; also recorded: dose dependent manner | binds to NEO-101 antibody | blocks
